Data from patent US6444648B1, “Leishmaniasis remedy containing glucopyranose derivative as the active ingredient” (University of the Ryukyu, priority 1997, dated 2002).

Tested on: L. amazonesis
Assay: Effects upon leishmaniasis-infected mice (shrinkage of skin foci)
Assay type: in vivo, BALB/c mice
Conditions: 30 mg/kg twice a week for 8 weeks; for Average focus shrinkage degree: before administration = 100
Source text: L. amazonesis was inoculated to tail root portions of BALB/c mice to prepare L. amazonesis-infected mice, and the mice were used 6 week after the infection. These mice were divided into four groups as mentioned below, infected foci (tail root portions) were photographed with lapse of time, and the effects upon them were examined in terms of [by means of] shrinkage degrees of the skin foci. The shrinkage degree of the skin focus was found by measuring a major axis of ulcer or node. The magnitude before administration was taken as 100 and the magnitude 8 weeks after administration was calculated according to the following calculation formula. Group A (Control group) Only a solvent (55% ethanol-4.5% glucose liquid) was injected topically into a focus twice a week for 8 weeks. Group B (Control group) Only a solvent (55% ethanol-4.5% glucose liquid) was injected intraperitoneally twice a week for 8 weeks. Group C (Topically injected group) A solution in which the sodium salt of the compound in the present invention represented by the formula (1) was dissolved in the solvent was injected topically into a focus twice a week for 8weeks at a rate of 30 mg/kg. Group D (intraperitoneally injected group) A solution in which the sodium salt of the compound in the present invention represented by the formula (1) was dissolved in the solvent was injected intraperitoneally twice a week for 8 weeks at a rate of 30 mg/kg. [formula]

2-deoxy-2-[(3S)-(9-phenylnonanoyloxy)tetradecanoyl]amino-3-O-(9-phenylnonanoyl)-4-O-sulfo-α-D-glucopyranose
Average focus shrinkage degree (Group C: injected topically into focus, magnitude (major axis of ulcer or node) 8 weeks after administration, n = 7, solvent control Group A 220.5): 138.9 (n = 7) | Skin focus completely cured (number of mice) (Group C: topical injection, n = 7): completely cured with respect to three mice | Average focus shrinkage degree (Group D: injected intraperitoneally, magnitude 8 weeks after administration, n = 6, solvent control Group B 289.3): 178.5 (n = 6)

CCCCCCCCCCC[C@@H](CC(=O)N[C@@H]1[C@@H](OC(=O)CCCCCCCCc2ccccc2)[C@H](OS(=O)(=O)[O-])[C@@H](CO)O[C@@H]1O)OC(=O)CCCCCCCCc1ccccc1.[Na+] [the compound in the present invention, 2-deoxy-2-[(3S)-(9-phenylnonanoyloxy)tetradecanoyl]-amino-3-O-(9-phenylnonanoyl)-4-O-sulfo-α-D-glucopyranose]
Effect on focal infection of leishmaniasis-infected mice (in words) (conclusion from Table 1, topical or intraperitoneal): effectively shrunk the focal infection
